From patent publication US20160120863A1, “SLC2A TRANSPORTER INHIBITORS” (IOMET PHARMA LTD., priority 2013, published 2016)

What follows are compounds tested against T1, human GLUT1 (Homo sapiens, UniProt P11166) (assay: [3H]-deoxy-D-glucose uptake assay, GLUT1). Conditions: [3H]-deoxy-D-glucose uptake in HEK293 cells stably expressing human GLUT1.
T1 construct: expressed in transfected cells
T1 sequence (P11166 1-492): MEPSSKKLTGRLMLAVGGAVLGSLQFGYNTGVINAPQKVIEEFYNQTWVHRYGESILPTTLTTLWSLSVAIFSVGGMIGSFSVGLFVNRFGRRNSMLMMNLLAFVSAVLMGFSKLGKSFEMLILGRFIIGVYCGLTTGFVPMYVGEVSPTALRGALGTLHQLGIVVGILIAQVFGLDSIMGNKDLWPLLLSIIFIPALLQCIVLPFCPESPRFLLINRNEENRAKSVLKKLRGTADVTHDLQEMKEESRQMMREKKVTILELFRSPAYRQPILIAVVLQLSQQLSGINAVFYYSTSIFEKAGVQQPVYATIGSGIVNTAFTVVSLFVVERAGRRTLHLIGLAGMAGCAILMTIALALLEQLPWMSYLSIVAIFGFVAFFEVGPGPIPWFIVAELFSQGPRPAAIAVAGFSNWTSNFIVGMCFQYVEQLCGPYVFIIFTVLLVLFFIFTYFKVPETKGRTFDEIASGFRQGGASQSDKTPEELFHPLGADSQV
Format: cell-based
How it was run: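 HEK293 cells stably overexpressing human GLUT1 or GLUT2, seeded at 60,000 per well, treated with compounds in glucose-free uptake buffer for 30 min at 37 °C. [3H]-deoxy-D-glucose uptake quantified by scintillation counting after ice-cold PBS washes; IC50 determined.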
In the case of `Clc1ccc(-c2nc3ccc(C4CCCC4)cn3c2CN2CCOCC2)cc1` [Compound 240], the “GLUT1 pIC50” value is reported as “++ (pIC50 5.00-5.99)”. In the case of `Clc1ccc(-c2nc3ccc(-c4ncccn4)cn3c2CN2CCOCC2)cc1` [Compound 241], the “GLUT1 pIC50” value is reported as “++ (pIC50 5.00-5.99)”. `Cn1cc(C(=O)N2CCN(Cc3c(-c4ccc(Cl)cc4)nc4ccc(-c5ccccc5)cn34)CC2)cn1` [Compound 243] was tested, and the “GLUT1 pIC50” value was “+++ (pIC50 ≧ 6.00)”. For `O=C(c1cc[nH]c(=O)c1)N1CCN(Cc2c(-c3ccc(Cl)cc3)nc3ccc(-c4ccccc4)cn23)CC1` [Compound 244], the “GLUT1 pIC50” value was “+++ (pIC50 ≧ 6.00)”. In the case of `OC(c1c(-c2ccc(Cl)cc2)nc2ccc(-c3ccccc3)cn12)C1CCCN1` (centres unmarked) [Compound 245], the “GLUT1 pIC50” value is reported as “+− (pIC50 < 4.00)”. For `Cn1ccnc1C(=O)N1CCN(Cc2c(-c3ccc(Cl)cc3)nc3ccc(-c4ccccc4)cn23)CC1` [Compound 246], the “GLUT1 pIC50” value was “++ (pIC50 5.00-5.99)”. `CN1CCN(Cc2c(-c3ccc(Cl)cc3)nc3ccc(-c4ccccc4)cn23)CC1=O` [Compound 248] was tested, and the “GLUT1 pIC50” value was “++ (pIC50 5.00-5.99)”. For `Fc1cc(Cl)ccc1-c1nc2ccc(-c3ccccc3)cn2c1CN1CCOCC1` [Compound 249], the “GLUT1 pIC50” value was “++ (pIC50 5.00-5.99)”. For `O=C(c1cn[nH]c1)N1CCN(Cc2c(-c3ccc(Cl)cc3)nc3ccc(-c4ccccc4)cn23)CC1` [Compound 250], the “GLUT1 pIC50” value was “+++ (pIC50 ≧ 6.00)”. `Fc1cccnc1-c1ccc2nc(-c3ccc(Cl)cc3)c(CN3CCOCC3)n2c1` [Compound 251] was tested, and the “GLUT1 pIC50” value was “++ (pIC50 5.00-5.99)”. For `O=C(c1cnccn1)N1CCN(Cc2c(-c3ccc(Cl)cc3)nc3cnc(C4CC4)cn23)CC1` [Compound 255], the “GLUT1 pIC50” value was “+++ (pIC50 ≧ 6.00)”. With `O=C(C1CCOCC1)N1CCN(Cc2c(-c3ccc(Cl)cc3)nc3cnc(C4CC4)cn23)CC1` [Compound 256] the “GLUT1 pIC50” value was “+++ (pIC50 ≧ 6.00)”. With `COCC(=O)N1CCN(Cc2c(-c3ccc(Cl)cc3)nc3ccc(NS(C)(=O)=O)cn23)CC1` [Compound 260] the “GLUT1 pIC50” value was “+++ (pIC50 ≧ 6.00)”. For `O=C(c1cnccn1)N1CCN(Cc2c(-c3ccc(Cl)cc3)nc3ccc(C4CC4)cn23)CC1` [Compound 263], the “GLUT1 pIC50” value was “+++ (pIC50 ≧ 6.00)”. For `O=C(c1nccs1)N1CCN(Cc2c(-c3ccc(Cl)cc3)nc3ccc(-c4ccccc4)cn23)CC1` [Compound 266], the “GLUT1 pIC50” value was “+++ (pIC50 ≧ 6.00)”. With `O=C(c1cscn1)N1CCN(Cc2c(-c3ccc(Cl)cc3)nc3cnc(C4CC4)cn23)CC1` [Compound 267] the “GLUT1 pIC50” value was “+++ (pIC50 ≧ 6.00)”. For `O=C(c1ccnnc1)N1CCN(Cc2c(-c3ccc(Cl)cc3)nc3cnc(C4CC4)cn23)CC1` [Compound 268], the “GLUT1 pIC50” value was “+++ (pIC50 ≧ 6.00)”. For `CC(=O)N1CCN(Cc2c(-c3ccc(Cl)cc3)nc3ccc(-c4ncon4)cn23)CC1` [Compound 270], the “GLUT1 pIC50” value was “+++ (pIC50 ≧ 6.00)”. For `O=C(C1COC1)N1CCN(Cc2c(-c3ccc(Cl)cc3)nc3cnc(C4CC4)cn23)CC1` [Compound 274], the “GLUT1 pIC50” value was “+++ (pIC50 ≧ 6.00)”. `COCC(=O)N1CCN(Cc2c(-c3ccc(Cl)cc3)nc3ccc([N+](=O)[O-])cn23)CC1` [Compound 275] was tested, and the “GLUT1 pIC50” value was “++ (pIC50 5.00-5.99)”. With `CC(=O)N1CCN(Cc2c(-c3ccc(Cl)cc3)nc3ccc(N)cn23)CC1` [Compound 276] the “GLUT1 pIC50” value was “+− (pIC50 < 4.00)”. `O=C(CO)N1CCN(Cc2c(-c3ccc(Cl)cc3)nc3ccc(-c4ccccc4)cn23)CC1` [Compound 277] was tested, and the “GLUT1 pIC50” value was “+++ (pIC50 ≧ 6.00)”. With `CS(=O)(=O)Nc1ccc2nc(-c3ccc(Cl)cc3)c(CN3CCN(C(=O)c4cscn4)CC3)n2c1` [Compound 279] the “GLUT1 pIC50” value was “+++ (pIC50 ≧ 6.00)”. For `COCC(=O)N1CCN(Cc2c(-c3ccc(Cl)cc3)nc3ccc(N)cn23)CC1` [Compound 280], the “GLUT1 pIC50” value was “+− (pIC50 < 4.00)”. In the case of `O=C(c1ccncc1)N1CCN(Cc2c(-c3ccc(Cl)cc3)nc3ccc(-c4ncon4)cn23)CC1` [Compound 281], the “GLUT1 pIC50” value is reported as “+++ (pIC50 ≧ 6.00)”. In the case of `O=C(c1c(-c2ccc(Cl)cc2)nc2ccc(-c3ccccc3)cn12)N1CCOCC1` [Compound 282], the “GLUT1 pIC50” value is reported as “+− (pIC50 < 4.00)”. For `CN1CCN(C(=O)c2c(-c3ccc(Cl)cc3)nc3ccc(-c4ccccc4)cn23)CC1` [Compound 283], the “GLUT1 pIC50” value was “+− (pIC50 < 4.00)”. `COCC(=O)N1CCN(Cc2c(-c3ccc(Cl)cc3)nc3ccc(-c4ncon4)cn23)CC1` [Compound 284] was tested, and the “GLUT1 pIC50” value was “+++ (pIC50 ≧ 6.00)”. With `O=C(C1COC1)N1CCN(Cc2c(-c3ccc(Cl)cc3)nc3ccc(-c4ncon4)cn23)CC1` [Compound 285] the “GLUT1 pIC50” value was “+++ (pIC50 ≧ 6.00)”. With `CS(=O)(=O)Nc1ccc2nc(-c3ccc(Cl)cc3)c(CN3CCN(C(=O)C4COC4)CC3)n2c1` [Compound 286] the “GLUT1 pIC50” value was “+++ (pIC50 ≧ 6.00)”. In the case of `Clc1ccc(-c2nc3ccc(-c4nccs4)cn3c2CN2CCOCC2)cc1` [Compound 287], the “GLUT1 pIC50” value is reported as “+++ (pIC50 ≧ 6.00)”. In the case of `O=C1CN(Cc2c(-c3ccc(Cl)cc3)nc3cnc(C4CC4)cn23)CCN1` [Compound 288], the “GLUT1 pIC50” value is reported as “+++ (pIC50 ≧ 6.00)”. `CS(=O)(=O)Nc1ccc2nc(-c3ccc(Cl)cc3)c(CN3CCNC(=O)C3)n2c1` [Compound 289] was tested, and the “GLUT1 pIC50” value was “+++ (pIC50 ≧ 6.00)”. With `CC(C)(C)OC(=O)N1CCN(C(=O)c2c(-c3ccc(Cl)cc3)nc3ccc(-c4ccccc4)cn23)CC1` [Compound 290] the “GLUT1 pIC50” value was “+− (pIC50 < 4.00)”. `O=C(c1c(-c2ccc(Cl)cc2)nc2ccc(-c3ccccc3)cn12)N1CCNCC1` [Compound 291] was tested, and the “GLUT1 pIC50” value was “+− (pIC50 < 4.00)”.
